1 compound from patent publication US8506945B2, “Polymers with structure-defined functions” (Smith & Nephew, PLC., priority 2001, dated 2013) can be followed below.

The subject of data set [1] is ovine meniscal chondrocytes P3. Description: Cytotoxicity on chondrocyte culture, PicoGreen DNA assay. The format is cell-based. The settings on record: 48 h incubation, DNA by PicoGreen assay. An excerpt: The high chemical reactivity of protease inhibitors represents toxicological problems both in vitro and potentially in vivo. […] DNA concentrations were obtained using a PicoGreen assay.

Data set [2] deals with Elastase. The settings on record: Elastase (1.2 μg/ml), 20° C., 0.2M TRIS buffer.
In data set [3] the target is Thrombin (Homo sapiens, UniProt P00734). Description: biochemical.

In the case of `NCCc1ccc(S(=O)(=O)F)cc1` [AEBSF, 4-(2-aminoethyl)benzenesulphonylfluoride], the “concentration at which significant toxicity deviation from the vehicle alone begins” value in data set [1] stood at 8000 ng/mL. Also, the values for the IC50 in data set [2] and in data set [3] were 312 µM and 712 µM, respectively.

The IC50 is the point on the concentration scale where inhibition reaches its midpoint.
